Patent US6569845B1, “Neovascularization inhibitor containing dienogest as the active ingredient” (Mochida Pharmaceutical Co., Ltd., priority 1997, dated 2003)

How the values were obtained:
[1] = system: chorioallantoic membrane of chick fertilized egg; experiment: CAM (chick embryo chorioallantoic membrane) assay, suppressing action of angiogenesis; format: in vivo; settings: for Number of choriallantoic membrane with non-vascular region: EV pellet, 2 days at 37° C.
Description: Suppressing Action of Angiogenesis According to CAM (Chick Embryo Chorioallantoic Membrane) Assay
According to the method by Hayashi, et al. (Mechanism of Angiogenesis and Diseases, Medical Journal, pp. 255-266, 1996), the suppressing action of angiogenesis was tested by the CAM assay using chorioallantoic membrane of chick fertilized egg. More specifically, a hole was opened through a chick fertilized egg incubated in an incubator at 37° C. for 4 or 5 days, and then, a silicone ring of an outer diameter of 5 mm and an inner diameter of 3 mm was gently placed on the center of the chorioallantoic membrane, followed by placement of an EV (ethylene-vinyl acetate copolymer) pellet containing dienogest or MPA inside the ring. A chorioallantoic membrane on which an EV pellet with no sample was placed was used as a control group. After incubation at 37° C. for 2 days, a fat emulsion preparation was injected into each chorioallantoic membrane, so as to get a clear view of the vascular network on the chorioallantoic membrane, for subsequent observation. Formation of a non-vascular region of a diameter of 3 mm or more on the chorioallantoic membrane was defined as positive suppressing action on angiogenesis.
a: frequency in % of the occurrence of non-vascular region, in parenthesis.
b: Data of suppressing action on angiogenesis is statistically tested by the Fisher's accurate probability test.

[2] = system: angiogenesis induced by the S-180 tumor cells; experiment: Murine dorsal air sac assay, angiogenesis induced by S-180 tumor cells; format: in vivo; settings: mouse
Description: Suppressing Action of Angiogenesis by Murine Dorsal Air Sac Assay According to the method by Iwabana et al. (Cancer Invasion & Metastatic Research Manual, Kinpodo, pp. 172-176, 1995), suppressing action of angiogenesis was tested by the murine dorsal skin method. S-180 tumor cell (murine derived sarcoma) suspended in phosphate buffered saline (PBS) was injected into a Millipore chamber, and the injection opening was closed with a nylon stopper. With an injection syringe, air (10 ml) was injected into the dorsal skin of a mouse anesthetized with Nembutal, to prepare an […], into which the Millipore chamber was transplanted. Animals were preliminarily divided into 4 groups; a Millipore chamber injected with PBS instead of S-180 tumor cells was transplanted into animals of a non-treatment control group (group A), which were then orally given 0.5% CMC carboxymethyl cellulose sodium (0.5% CMC, Wako Pure Chemical Industries, Co.) for 5 days. […] After placing a black ring of the same diameter as the diameter of these chambers at the position of the chambers in place, the number of newly formed vessels of a length of 3 mm or more inside the ring was counted under a stereoscopic microscope. […] Comparison between two groups was done and analyzed by the Wilcoxon's rank sum test; while comparison between multiple groups was done and analyzed by the Dunnett's multiple comparison.

[3] = system: rabbit cornea; settings: rabbit cornea assay system (Yamamoto); cited from earlier work

| Compound | dose that significantly increased the number of chorioallantoic membranes with non-vascular region ([1]; compared with the control group, dose-dependent) | frequency of the occurrence of non-vascular region ([1]; dose 0.01 μg/egg) | Number of choriallantoic membrane with non-vascular region ([1]; dose 0.01 μg/egg) | frequency of the occurrence of non-vascular region ([1]; dose 0.1 μg/egg) | Number of choriallantoic membrane with non-vascular region ([1]; dose 0.1 μg/egg) | frequency of the occurrence of non-vascular region ([1]; dose 1 μg/egg) | Number of choriallantoic membrane with non-vascular region ([1]; dose 1 μg/egg) | frequency of the occurrence of non-vascular region ([1]; dose 10 μg/egg) | Number of choriallantoic membrane with non-vascular region ([1]; dose 10 μg/egg) | frequency of the occurrence of non-vascular region ([1]; dose 100 μg/egg) | Number of choriallantoic membrane with non-vascular region ([1]; dose 100 μg/egg) | frequency of the occurrence of non-vascular region ([1]; dose 1000 μg/egg) | Number of choriallantoic membrane with non-vascular region ([1]; dose 1000 μg/egg) | suppression of angiogenesis induced by the S-180 tumor cells (angiogenesis index) ([2]; group C, 0.1 mg/kg orally for 5 days) | suppression of angiogenesis induced by the S-180 tumor cells (angiogenesis index) ([2]; group D, 1 mg/kg orally for 5 days, vs solvent control group (p<0.001)) | number of chorioallantoic membranes with non-vascular region compared with the control group ([1]; 100 μg/egg) | activity on angiogenic suppression [3] |
| --- | --- | --- | --- | --- | --- | --- | --- | --- | --- | --- | --- | --- | --- | --- | --- | --- | --- |
| C[C@]12CCC3=C4CCC(=O)C=C4CC[C@H]3[C@@H]1CC[C@@]2(O)CC#N [Dienogest, 17 α-cyanomethyl-17 β-hydroxy-estra-4, 9(10)-dien-3-one] | ≥ 0.01 μg/egg | 13.3% | 2 | 23.5% | 4 | 48.1% | 13 | 54.2% | 13 | 83.3% | 20 | 91.7% | 22 | weak suppression of angiogenesis | significantly suppressed angiogenesis | – | – |
| CC(=O)O[C@]1(C(C)=O)CC[C@H]2[C@@H]3C[C@H](C)C4=CC(=O)CC[C@]4(C)[C@H]3CC[C@@]21C [MPA, medroxyprogesterone acetate] | – | – | – | – | – | – | – | – | – | 50.0% | 4 | – | – | – | – | significantly increased | – |
| CC(=O)[C@H]1CC[C@H]2[C@@H]3CCC4=CC(=O)CC[C@]4(C)[C@H]3CC[C@]12C [progesterone] | – | – | – | – | – | – | – | – | – | – | – | – | – | – | – | – | does not have any activity on angiogenic suppression |
